# Calls of active or inactive are those of the source. The rule behind the calls is not given here.
# Key:
# [1] = test system: PC-3; experiment: Antiproliferative activity against human PC-3 cells measured after 72 hrs by MTT assay; assay type: functional, cell-based; settings: PC-3, 72 h
# [2] = test system: MGC-803; experiment: cells; settings: Homo sapiens, MGC-803, 72 h
# Description: Antiproliferative activity against human MGC-803 cells measured after 72 hrs by MTT assay
# [3] = test system: ECa-109 cell line; experiment: Antiproliferative activity against human Eca-109 cells measured after 72 hrs by MTT assay; assay type: functional, cell-based; settings: ECa-109, 72 h
# [4] = test system: MCF7; experiment: cells; settings: Homo sapiens, MCF7, 72 h
# Description: Antiproliferative activity against human MCF7 cells measured after 72 hrs by MTT assay
# [5] = Induction of NO release in phosphate buffer containing excess L-cysteine measured up to 14 hrs by Griess assay; assay type: functional
SMILES,IC50 [1],IC50 [2],IC50 [3],IC50 [4],Activity [5]
Cc1ccc(Nc2nc(SCC(=O)N3CCN(CCOc4no[n+]([O-])c4S(=O)(=O)c4ccccc4)CC3)nc(-c3ccccc3)c2C#N)cc1,2370 nM,1360 nM,2.94 µM,2.14 µM,–
N#Cc1c(Nc2ccccc2)nc(SCC(=O)N2CCC(Oc3no[n+]([O-])c3S(=O)(=O)c3ccccc3)CC2)nc1-c1ccccc1,2010 nM,2570 nM,7.03 µM,6.02 µM,–
N#Cc1c(Nc2ccccc2C(F)(F)F)nc(SCC(=O)N2CCN(CCOc3no[n+]([O-])c3S(=O)(=O)c3ccccc3)CC2)nc1-c1ccccc1,3020 nM,1670 nM,3.85 µM,2.26 µM,–
CCCc1cccc(Nc2nc(SCC(=O)N3CCN(CCOc4no[n+]([O-])c4S(=O)(=O)c4ccccc4)CC3)nc(-c3ccccc3)c2C#N)c1,2920 nM,1890 nM,8.05 µM,3.03 µM,–
N#Cc1c(Nc2ccc(Cl)cc2)nc(SCC(=O)N2CCN(CCOc3no[n+]([O-])c3S(=O)(=O)c3ccccc3)CC2)nc1-c1ccccc1,2080 nM,2050 nM,3.01 µM,3.04 µM,Active
CN1CCN(c2nc(SCC(=O)N3CCN(CCOc4no[n+]([O-])c4S(=O)(=O)c4ccccc4)CC3)nc(-c3ccccc3)c2C#N)CC1,1570 nM,1460 nM,2.34 µM,2.69 µM,–
COc1cccc(Nc2nc(SCC(=O)N3CCN(CCOc4no[n+]([O-])c4S(=O)(=O)c4ccccc4)CC3)nc(-c3ccccc3)c2C#N)c1,3380 nM,1540 nM,4.6 µM,2.09 µM,–
N#Cc1c(Nc2cccc(Br)c2)nc(SCC(=O)N2CCN(CCOc3no[n+]([O-])c3S(=O)(=O)c3ccccc3)CC2)nc1-c1ccccc1,1550 nM,1330 nM,3.45 µM,3.16 µM,–
N#Cc1c(Nc2ccccc2)nc(SCC(=O)OCC#CCOc2no[n+]([O-])c2S(=O)(=O)c2ccccc2)nc1-c1ccccc1,2060 nM,2670 nM,3.27 µM,10.4 µM,–
N#Cc1c(Nc2cccc(C(F)(F)F)c2)nc(SCC(=O)N2CCN(CCOc3no[n+]([O-])c3S(=O)(=O)c3ccccc3)CC2)nc1-c1ccccc1,2190 nM,1260 nM,2.89 µM,2.21 µM,–
CCCc1ccc(Nc2nc(SCC(=O)N3CCN(CCOc4no[n+]([O-])c4S(=O)(=O)c4ccccc4)CC3)nc(-c3ccccc3)c2C#N)cc1,1160 nM,1090 nM,5.42 µM,2.07 µM,–
N#Cc1c(-c2ccccc2)nc(SCC(=O)N2CCN(CCOc3no[n+]([O-])c3S(=O)(=O)c3ccccc3)CC2)nc1N1CCOCC1,6980 nM,8130 nM,6.92 µM,8.95 µM,Active
N#Cc1c(Nc2ccc(Cl)c(Cl)c2)nc(SCC(=O)N2CCN(CCOc3no[n+]([O-])c3S(=O)(=O)c3ccccc3)CC2)nc1-c1ccccc1,1850 nM,1880 nM,3.92 µM,3.35 µM,–
CCc1ccccc1Nc1nc(SCC(=O)N2CCN(CCOc3no[n+]([O-])c3S(=O)(=O)c3ccccc3)CC2)nc(-c2ccccc2)c1C#N,2930 nM,2010 nM,4.42 µM,2.6 µM,–
N#Cc1c(Nc2ccc(Br)cc2)nc(SCC(=O)N2CCN(CCOc3no[n+]([O-])c3S(=O)(=O)c3ccccc3)CC2)nc1-c1ccccc1,1940 nM,1390 nM,3.32 µM,2.31 µM,–
CCOc1ccc(Nc2nc(SCC(=O)N3CCN(CCOc4no[n+]([O-])c4S(=O)(=O)c4ccccc4)CC3)nc(-c3ccccc3)c2C#N)cc1,2840 nM,2950 nM,3.57 µM,5.43 µM,–
N#Cc1c(Nc2cccc(F)c2)nc(SCC(=O)N2CCN(CCOc3no[n+]([O-])c3S(=O)(=O)c3ccccc3)CC2)nc1-c1ccccc1,1630 nM,1080 nM,4.54 µM,2.72 µM,–
N#Cc1c(Nc2ccc(F)c(Cl)c2)nc(SCC(=O)N2CCN(CCOc3no[n+]([O-])c3S(=O)(=O)c3ccccc3)CC2)nc1-c1ccccc1,1970 nM,1070 nM,2.81 µM,3.36 µM,–
N#Cc1c(Nc2ccccc2F)nc(SCC(=O)N2CCN(CCOc3no[n+]([O-])c3S(=O)(=O)c3ccccc3)CC2)nc1-c1ccccc1,1190 nM,1440 nM,3.56 µM,2.28 µM,–
N#Cc1c(Nc2ccccc2)nc(SCC(=O)OCCc2ccc(Oc3no[n+]([O-])c3S(=O)(=O)c3ccccc3)cc2)nc1-c1ccccc1,2100 nM,18400 nM,23.1 µM,> 50 µM,–
N#Cc1c(Nc2ccccc2)nc(SCC(=O)OCCCOc2no[n+]([O-])c2S(=O)(=O)c2ccccc2)nc1-c1ccccc1,2320 nM,7310 nM,8.58 µM,7.66 µM,–
O=S(=O)(c1ccccc1)c1c(OCCN2CCNCC2)no[n+]1[O-],–,6740 nM,–,–,–

SMILES,IC50 [1],IC50 [2],IC50 [3],IC50 [4],Activity [5]
N#Cc1c(Nc2ccc(C(F)(F)F)cc2)nc(SCC(=O)N2CCN(CCOc3no[n+]([O-])c3S(=O)(=O)c3ccccc3)CC2)nc1-c1ccccc1,3520 nM,1560 nM,4.64 µM,2.23 µM,–
CCN1CCN(c2nc(SCC(=O)N3CCN(CCOc4no[n+]([O-])c4S(=O)(=O)c4ccccc4)CC3)nc(-c3ccccc3)c2C#N)CC1,1420 nM,1240 nM,2.27 µM,2.24 µM,–
N#Cc1c(Nc2ccccc2)nc(SCC(=O)OCCCCCOc2no[n+]([O-])c2S(=O)(=O)c2ccccc2)nc1-c1ccccc1,2280 nM,3800 nM,> 50 µM,5.94 µM,–
N#Cc1c(Nc2ccccc2)nc(SCC(=O)NCCOc2no[n+]([O-])c2S(=O)(=O)c2ccccc2)nc1-c1ccccc1,2370 nM,2580 nM,6.35 µM,4.16 µM,–
N#Cc1c(Nc2ccc(F)cc2)nc(SCC(=O)N2CCN(CCOc3no[n+]([O-])c3S(=O)(=O)c3ccccc3)CC2)nc1-c1ccccc1,1390 nM,1560 nM,2.48 µM,2.23 µM,–
CCc1ccc(Nc2nc(SCC(=O)N3CCN(CCOc4no[n+]([O-])c4S(=O)(=O)c4ccccc4)CC3)nc(-c3ccccc3)c2C#N)cc1,2720 nM,1450 nM,5.97 µM,3.39 µM,–
CCCc1ccccc1Nc1nc(SCC(=O)N2CCN(CCOc3no[n+]([O-])c3S(=O)(=O)c3ccccc3)CC2)nc(-c2ccccc2)c1C#N,2150 nM,2040 nM,4.61 µM,2.74 µM,–
Cc1cccc(Nc2nc(SCC(=O)N3CCN(CCOc4no[n+]([O-])c4S(=O)(=O)c4ccccc4)CC3)nc(-c3ccccc3)c2C#N)c1,2100 nM,1250 nM,2.38 µM,2.12 µM,–
CCOc1ccccc1Nc1nc(SCC(=O)N2CCN(CCOc3no[n+]([O-])c3S(=O)(=O)c3ccccc3)CC2)nc(-c2ccccc2)c1C#N,2050 nM,1460 nM,3.75 µM,3.61 µM,–
CCc1cccc(Nc2nc(SCC(=O)N3CCN(CCOc4no[n+]([O-])c4S(=O)(=O)c4ccccc4)CC3)nc(-c3ccccc3)c2C#N)c1,2400 nM,1110 nM,4.1 µM,2.87 µM,–
Cc1ccccc1Nc1nc(SCC(=O)N2CCN(CCOc3no[n+]([O-])c3S(=O)(=O)c3ccccc3)CC2)nc(-c2ccccc2)c1C#N,2250 nM,1590 nM,2.48 µM,2.33 µM,–
N#Cc1c(Nc2ccccc2)nc(SCC(=O)OCCCCCCOc2no[n+]([O-])c2S(=O)(=O)c2ccccc2)nc1-c1ccccc1,13000 nM,> 50000 nM,> 50 µM,> 50 µM,–
N#Cc1c(Nc2ccccc2)nc(SCC(=O)N2CCC(Oc3no[n+]([O-])c3S(=O)(=O)c3ccccc3)C2)nc1-c1ccccc1 (stereo unspecified),2180 nM,3560 nM,4.39 µM,3.55 µM,–
N#Cc1c(Nc2ccccc2)nc(SCC(=O)NCCCOc2no[n+]([O-])c2S(=O)(=O)c2ccccc2)nc1-c1ccccc1,2280 nM,2950 nM,5.73 µM,6.03 µM,–
COc1ccccc1Nc1nc(SCC(=O)N2CCN(CCOc3no[n+]([O-])c3S(=O)(=O)c3ccccc3)CC2)nc(-c2ccccc2)c1C#N,1700 nM,1460 nM,4.7 µM,3.3 µM,–
N#Cc1c(Nc2ccccc2)nc(SCC(=O)NCCCCCOc2no[n+]([O-])c2S(=O)(=O)c2ccccc2)nc1-c1ccccc1,2300 nM,2210 nM,4.61 µM,4.02 µM,–
C=CC(=O)Nc1cccc(Nc2nc(SCC(=O)N3CCN(CCOc4no[n+]([O-])c4S(=O)(=O)c4ccccc4)CC3)nc(-c3ccccc3)c2C#N)c1,1880 nM,1410 nM,3.66 µM,4.22 µM,–
N#Cc1c(Nc2ccccc2)nc(SCC(=O)OCCCCOc2no[n+]([O-])c2S(=O)(=O)c2ccccc2)nc1-c1ccccc1,2450 nM,7000 nM,> 50 µM,5.08 µM,–
N#Cc1c(-c2ccccc2)nc(SCC(=O)N2CCN(CCOc3no[n+]([O-])c3S(=O)(=O)c3ccccc3)CC2)nc1N1CCSCC1,5050 nM,4610 nM,6.68 µM,6.81 µM,–
N#Cc1c(Nc2cccc(Cl)c2)nc(SCC(=O)N2CCN(CCOc3no[n+]([O-])c3S(=O)(=O)c3ccccc3)CC2)nc1-c1ccccc1,1430 nM,1190 nM,2.31 µM,2.51 µM,–
N#Cc1c(Nc2ccccc2)nc(SCC(=O)N2CCN(CCOc3no[n+]([O-])c3S(=O)(=O)c3ccccc3)CC2)nc1-c1ccccc1,1920 nM,2000 nM,2.27 µM,2.96 µM,–
